Measurements as given in the supplement of paper PMC6206229.
Values after ≈ are worked out from the molar mass of the structure shown.

Assays:
[1] = system: Staphylococcus aureus ATCC 700699 (MRSA); assay: minimum inhibitory concentration; extreme values may be limits of the assay
Outline: (§1)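 Following CLSI guidance, methicillin-susceptible and methicillin-resistant Staphylococcus aureus were exposed to compounds from 0 to 100 µM in 96-well plates for 24 h at 37°C, then to 30 µl of 0.015% resazurin for 2–4 h. The minimum inhibitory concentration was read as the lowest concentration with no change from blue to pink. Testing was done at least twice in triplicate with positive controls on each plate.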

[2] = system: Staphylococcus aureus ATCC 29213 (MSSA); assay: as above
Outline: as §1

SMILES	minimum inhibitory concentration [1] [µM]	minimum inhibitory concentration [2] [µM]
CC(=O)OCC1OC([S-])C(OC(C)=O)C(OC(C)=O)C1OC(C)=O.CCP(CC)CC.[Au+] (stereo unspecified)	0.78	0.39
COc1ccc(C2(C(=O)Nc3ccc(Br)cc3)CCCC2)cc1	> 50	> 50
CC(=O)N(CCN(C(=O)c1ccc(F)cc1)c1ccccc1)c1ccccc1	> 50	> 50
O=C(NC1=NCCS1)c1sc2cc(F)ccc2c1Cl	> 50	> 50
Cc1nn(C)c(C)c1NS(=O)(=O)c1c(Cl)cc(-c2ccnc(N3CCNCC3)c2)cc1Cl	> 50	> 50
COc1ccc(-c2nn(C(C)C)c3ncnc(N)c23)cc1OC	> 50	> 50
Cc1ccc(C(=O)Nc2ccc(S(=O)(=O)O)c3cc(S(=O)(=O)O)cc(S(=O)(=O)O)c23)cc1NC(=O)c1cccc(NC(=O)Nc2cccc(C(=O)Nc3cc(C(=O)Nc4ccc(S(=O)(=O)O)c5cc(S(=O)(=O)O)cc(S(=O)(=O)O)c45)ccc3C)c2)c1	> 50	> 50
COc1cccc(OC)c1C(=O)Nc1ccc(Cl)c(-c2nc3ccccc3s2)c1	> 50	> 50
CC(C)(C)C(O)C(Oc1ccc(-c2ccccc2)cc1)n1cncn1 (stereo unspecified)	> 50	> 50
CCCS(=O)(=O)N1CCC(CO)(Cc2ccccc2C(F)(F)F)CC1	> 50	> 50
Cc1cc(NC(=O)c2ccc(S(=O)(=O)N(Cc3ccccc3)C(C)C)cc2)no1	> 50	> 50
Cc1ccccc1C(=O)N1N=C(Nc2ccccc2)SC1(C)C	> 50	> 50
Cc1cc(C(=O)Nc2cnn(Cc3ccc(Cl)cc3Cl)c2)no1	> 50	> 50
FC(F)(F)c1cc(NCCc2ccccc2)nc(-c2ccccn2)n1	> 50	> 50
COc1ccc(C2=NCCN2)cc1-c1cn(-c2cccc(C3=NCCN3)c2)nn1	> 50	> 50
NCCC(O)C(=O)N[C@@H]1C[C@H](N)[C@@H](OC2O[C@H](CN)[C@@H](O)[C@H](O)[C@H]2O)[C@H](O)C1OC1O[C@H](CO)[C@@H](O)[C@H](N)[C@H]1O (stereo partly specified)	> 50	> 50
COc1ccc(-c2cnc3ccc(NCc4ccc(S(N)(=O)=O)cc4)nn23)cn1	> 50	> 50
CCC(=O)Nc1ccccc1C(=O)Nc1ccccn1	> 50	> 50
Cc1cc(OCC(=O)NCc2ccccc2)c2cc(Br)ccc2n1	> 50	> 50
CN1CCCN(C(c2ccccc2)c2ccc(Cl)cc2)CC1 (stereo unspecified)	> 50	> 50
COc1cc(C2=NCCN2)ccc1-c1cn(-c2cccc(C3=NCCN3)c2)nn1	> 50	> 50
CCN(CC)S(=O)(=O)c1ccc(Cl)c(C(=O)Nc2ccc3nc(C)sc3c2)c1	> 50	> 50
c1ccc(-c2[nH]c3ccccc3c2C(c2ccccn2)N2CCCC2)cc1 (stereo unspecified)	> 50	> 50

SMILES	minimum inhibitory concentration [1] [µM]	minimum inhibitory concentration [2] [µM]
Cc1cc(OCC(=O)Nc2ccc(C(C)C)cc2)n(C)c(=O)c1C#N	> 50	> 50
O=C(Nc1nnc(S)s1)c1cc(Br)ccc1Cl	> 50	> 50
COc1cccc(-c2nc3c(N4CCCC4)cccc3n2CC2CCCN2)n1 (stereo unspecified)	50 (≈ 18.9 µg/mL)	25 (≈ 9.44 µg/mL)
Nc1ncc(-c2ccc(C(F)(F)F)nc2)cc1-c1ccc(C(F)(F)F)nc1	> 50	> 50
O=C(c1ccc(F)cc1)N(CCNc1ccccc1)c1ccccc1	> 50	> 50
COc1cccc2c(C)nc(N=C(N)N)nc12	> 50	> 50
Cc1cc(Cl)c(S(=O)(=O)N2CCCC2)cc1OCC(=O)NC1CCCCC1	> 50	> 50
CCCn1c(CNc2ccccc2O)nc2ccccc21	> 50	> 50
O=C(Nc1c(O)cccc1-c1nc2c(C(=O)O)cccc2o1)c1cc(-c2ccccc2)on1	> 50	> 50
COc1ccc(-c2onc(C(F)(F)F)c2-c2ccc(Cl)cc2)c(O)c1	> 50	> 50
COc1ccc(N(CCc2cccc(C)n2)C(=O)C2CCCCC2)cc1	> 50	> 50
Cc1cc(C)nc(-n2nc(C)cc2Nc2ccccc2)n1	> 50	> 50
CS(=O)(=O)c1cccc(-c2cnc3[nH]cc(-c4ccc(CCC(=O)O)cc4)c3c2)c1	> 50	> 50
O=C(C1CCN(c2cc(-n3cccc3)ncn2)CC1)N1CCc2ccccc2C1	> 50	> 50
O=C(Nc1nc(-c2ccccn2)cs1)c1cncn1-c1ccccc1	> 50	> 50
O=C(Nc1cnc2ccccc2c1)c1cccc(-n2cnnn2)c1	> 50	> 50
CC(Oc1ccccc1)C(=O)Nc1nc(-c2ccccn2)cs1 (stereo unspecified)	50 (≈ 16.3 µg/mL)	50 (≈ 16.3 µg/mL)
CCN(CC)CCCN1CCN(C(=O)c2cccc(-c3noc(C(F)(F)F)n3)c2)CC1	> 50	> 50
Cc1ccc2[nH]c3c(NCCN(C)C)ncnc3c2c1	> 50	> 50
c1ccc(Oc2ccc(-c3cc(N4CCNCC4)[nH]n3)cc2)cc1	> 50	> 50
CCC(Sc1nc2ccccc2o1)C(=O)Nc1nnc(C)s1 (stereo unspecified)	50 (≈ 16.7 µg/mL)	50 (≈ 16.7 µg/mL)
O=C(CN1CCOCC1)Nc1ccc2ncnc(Nc3ccc(OCc4cccc(F)c4)c(Cl)c3)c2c1	> 50	> 50
O=C1Nc2ccc(Br)cc2C12NCCc1c2[nH]c2ccccc12 (stereo unspecified)	> 50	> 50

SMILES	minimum inhibitory concentration [1] [µM]	minimum inhibitory concentration [2] [µM]
O=C(Nc1nc(-c2ccccn2)cs1)C1CC1c1ccccc1F (stereo unspecified)	> 50	> 50
CCCn1nnc(NC(=O)COc2ccc(C3CCCCC3)cc2)n1	> 50	> 50
CC[C@@H]([C@H](C)O)n1ncn(-c2ccc(N3CCN(c4ccc(OC[C@@H]5CO[C@@](Cn6cncn6)(c6ccc(F)cc6F)C5)cc4)CC3)cc2)c1=O	> 50	> 50
O=C(N[C@H](Cc1ccccc1)C(=O)Nc1ccccc1N1CCOCC1)c1cccs1	> 50	> 50
COc1cccc(CC(=O)N2CCC(n3c(C)nc4ccc(F)cc43)CC2)c1	> 50	> 50
O=[N+]([O-])c1cn2c(n1)OC[C@@H](OCc1ccc(OC(F)(F)F)cc1)C2	> 50	> 50
CNC(=O)C1Cc2c([nH]c3cc(Cl)ccc23)C2(CCN(CCc3ccccc3)CC2)N1 (stereo unspecified)	> 50	> 50
CN(C(=O)c1cc2c(-c3cncnc3)cccc2[nH]1)c1ccccc1	> 50	> 50
CC(=O)NCC1CN(c2ccc(-c3ccc(CNCc4cn[nH]n4)cc3)c(F)c2)C(=O)O1 (stereo unspecified)	6.25 (≈ 2.74 µg/mL)	6.25 (≈ 2.74 µg/mL)
CCOc1ccc(-c2nc(NC(=O)CS(=O)(=O)c3ccccc3)sc2C)cc1	> 50	> 50
COc1ccc(-c2cncc3ccc(C(=O)NCCCn4ccnc4)nc23)cc1	> 50	> 50
O=C(Nc1ccc(F)c(-c2nc3cc(-c4ccccc4)cnc3[nH]2)c1)N1CCCC1	> 50	> 50
COC(=O)c1ccc(F)cc1NS(=O)(=O)c1cccc(-c2cnn(Cc3ccccc3)c2)c1	> 50	> 50
O=C(Nc1ccc(N2CCNCC2)cc1)c1ccn2ncc(-c3cccc(Cl)c3)c2n1	> 50	> 50
Nc1ccc(C(=O)Nc2ccc(-c3nc4ccccc4o3)cc2)cc1	> 50	> 50
Oc1c(I)cc(I)c2cccnc12	50 (≈ 19.8 µg/mL)	> 50
COc1ccc2nc(C)cc(OCC(=O)Nc3ccccc3OC)c2c1	> 50	> 50
COc1cncc(-c2cncc(N3CCN(c4ccncc4)CC3)n2)c1	> 50	> 50
Cc1nc2ccccn2c1C(=O)NCc1ccc(Cl)cc1	> 50	> 50
C[C@]1(O)C[C@@H](c2nc(-c3ccc4ccc(-c5ccccc5)nc4c3)c3c(N)nccn32)C1	> 50	> 50
CCC(Sc1nc2ccccc2o1)C(=O)Nc1nccs1 (stereo unspecified)	50 (≈ 16 µg/mL)	> 50
COC(=O)Nc1nc2cc(C(=O)c3ccccc3)ccc2[nH]1	> 50	> 50
